{"source": "patent US20240197756A1", "about": "“METHODS OF TREATMENT WITH NEUROACTIVE STEROIDS” (priority 2021, published 2024)", "key": {"[1]": {"test": "Multiple escalating dose study, plasma pharmacokinetics of oral suspension (Cohorts 1-3)", "format": "in vivo, human", "procedure": "Healthy subjects aged 18 to 55 years were treated with an oral suspension of Compound 1 to study the safety, tolerability, pharmacokinetics and pharmacodynamics of Compound 1 in healthy subjects.\nThe study was a randomized, double-blind, placebo-controlled multiple escalating dose study comprised of 3 cohorts that each received an oral suspension. Each cohort consisted of two groups: one group treated with Compound 1 and another treated with placebo. In each cohort, the ratio of Compound 1-treated subjects to placebo-treated subjects was 3:1.\nThe Compound 1-treated subjects of Cohort 1 were treated with 15.0 mg of Compound 1 once per day (QD). The Compound 1-treated subjects of Cohort 2 were treated with 30.0 mg of Compound 1 QD. The Compound 1-treated subjects of Cohort 3 were treated with 60.0 mg of Compound 1 QD.\nPatients in each cohort were treated with Compound 1 for 14 consecutive days, unless dosing was halted by the Safety Review Committee (SRC). The dosing of subjects in each of the cohorts was staggered with the decision to dose escalate based on SRC review of a minimum of 14 days of observation of safety and tolerability data and review of the available plasma PK data from the preceding cohort(s). Thus, dose escalation was predicated on tolerability of the prior cohorts.\nCompound 1 was administered under fasted conditions (no food or drink, except water, for at least 10 hours prior to dosing). Immediately after administration of Compound 1, the subject was be administered 240 mL water. No additional fluid intake was allowed until 1 hour after Compound 1 administration.\nCohort 1 subjects received a single 15.0 mg dose of a Compound 1 suspension on the morning of Days 1-14. Cohort 2 subjects received a single 30.0 mg dose of a Compound 1 suspension on the morning of Days 1-14. Cohort 3 subjects received a single 60.0 mg dose of a Compound 1 suspension on the morning of Days 1-14. For all cohorts, the last treatment was administered on the morning of Day 14.\nData were obtained from the blood plasma samples collected from each cohort according to the schedule provided.\nPlasma samples were analyzed to determine Compound 1 concentrations using a validated assay method. Pharmacokinetic variables (including but not limited to Cmax, Tmax and AUC(0-last)) were calculated using non-compartmental analysis. PK parameters for Compound 1 were derived from the plasma concentration data using non-compartmental analysis with Phoenix™ WinNonlin® v 8.0 (Pharsight Corporation, USA).\nBlood (Cohorts 1-3): For each cohort, blood samples were collected on Days 1, 2, 3, 4, 5, 6 and 14 at the following time points: Day 1 at pre-dose (0 hour), 0.25, 0.5, 0.75, 1, 1.5, 2, 2.5, 3, 4, 6, 8, 12, 16 h post-dose; Day 2 at pre-dose (24 hours), Day 3 at pre-dose (48 hours), Day 4 at pre-dose (72 hours), Day 5 at pre-dose (96 hours), Day 6 at pre-dose (120 hours); Day 14 at pre-dose 0.25, 0.5, 0.75, 1, 1.5, 2, 2.5, 3, 4, 6, 8, 12, 16, 24, 36, 48, and 72 hours. Trough level blood samples were collected on Days 2, 3, 4, 5, 6 and 14, prior to the morning dose administrations.\nDescriptive statistics were calculated for plasma and urine PK parameter and concentration data and summarized by study day and time point. Arithmetic means, coefficient of variation (CV), standard deviation, median, minimum, and maximum values, and number of observations were calculated for all PK parameters and trough concentration data. Except for Tmax, the geometric mean, geometric standard deviation, and geometric CV were provided for all PK parameter and concentration data."}, "[2]": {"system": "patients with severe major depressive disorder (MDD)", "test": "Open-label study in severe MDD, Part A efficacy (HAM-D)", "format": "in vivo, human", "conditions": "for patients meeting the HAM-D Response or Remission criteria: Day 15", "experimental": "The study is an open-label, study comprised of two dosing periods, Part A and Part B, during which patients were treated with an oral suspension of Compound 1. Part A was an open-label assessment of two dose levels of Compound 1 (45 mg qHS Cohort 1 and 80 mg qHS Cohort, i.e., once daily administration at bedtime) administered for 7 days inpatient followed by 7 days outpatient. Compound 1 was administered at 4 p.m. on Day 1 in order to collect post-dosing PK samples that could not be collected with qHS dosing.\nIn Part A, participants were administered daily doses of Compound 1 (45 mg Cohort and 80 mg Cohort) at 4 p.m. on Day 1 and qHS on all other study days for 7 days inpatient followed by 7 days outpatient (with subsequent Cohorts receiving up to 120 mg qHS). Participants checked into the clinic on Day 1. During this period the following assessments were performed: adverse event assessments, vital signs, physical examinations, blood and urine samples for safety assessments, ECGs, C-SSRS assessments, blood samples for PK, and efficacy assessments (HAM-D, MADRS, HAM-A, CGI [CGI-S and CGI-I], PSQI, and SDQ). Baseline assessments occurred on Day 1 prior to administration of study drug. On Day 8, prior to discharge, participants were supplied with sufficient Compound 1 to complete 7 days of dosing.\nPatients were administered daily doses of Compound 1 for 7 days inpatient followed by 7 days outpatient.\nIn the 45 mg Cohort, patients were administered once daily dose of 45 mg of Compound 1 at bedtime for 7 days inpatient followed by once daily dose of 45 mg of Compound 1 at bedtime for 7 days outpatient.\nIn the 80 mg Cohort, patients were administered once daily dose of 80 mg of Compound 1 at bedtime for 7 days inpatient followed by once daily dose of 80 mg of Compound 1 at bedtime for 7 days outpatient.\nPart A: In Part A, HAM-D, MADRS, HAM-A, CGI-S, and CGI-I values were collected in the morning of Days 1, 2, 3, 4, 5, 6, 7, 8, 15, 21 and 28. PSQI and SDQ values will be collected on Days 1, 8, 15, 21 and 28. Part B: In Part B, HAM-D, MADRS, HAM-A, CGI-S, CGI-I, PSQI and SDQ values will be collected on the days described for Part A.\nHAM-D Response was defined as a reduction from baseline of ≥50% in total HAM-D score. HAM-D remission was defined as a total HAM-D score of ≤7.\nEfficacy analysis: For both parts of the clinical trial, the HAM-D total score and change from baseline values will be summarized by treatment group and time point. In addition, the change from baseline in HAM-D total score will also be analyzed using paired t-tests or similar methods. The null hypothesis of this test is that the mean difference in HAM-D total score between paired observations (i.e., pre- and post-treatment) is zero. Similar analysis methods will be used for all secondary and exploratory efficacy variables."}, "harmaline-induced tremor": {"system": "harmaline-induced tremor", "test": "rHIT model, coadministration of Compound 1 and Compound 2", "format": "in vivo, rat", "experimental": "Rat Harmaline Induced Tremor (rHIT): The rHIT model was used to assess the impact of the combination of Compound 1 and Compound 2 on reducing the symptoms of tremor. Male SD rats (SLAC, Shanghai, China) weighing about 250 g at the time of testing were housed in a 12:12 light-dark cycle room throughout the study, with the lights on from 5 a.m. to 5 p.m, and fed ad libitum. […]\nThe rHIT methods described in Example 5 were used. […] After the 20-minute baseline recording, rats were dosed with harmaline and the post-harmaline effect was measured for 20 minutes. […]"}, "[3]": {"conditions": "Cohort 1 (15.0 mg QD), Day 14 steady state, Geo Mean"}, "[4]": {"conditions": "Cohort 1 (15.0 mg QD), Day 14 steady state, Mean"}, "[5]": {"conditions": "Cohort 1 (15.0 mg QD), Day 14 steady state, Median"}, "[6]": {"conditions": "Cohort 2 (30.0 mg QD), Day 14 steady state, Geo Mean"}, "[7]": {"conditions": "Cohort 2 (30.0 mg QD), Day 14 steady state, Mean"}, "[8]": {"conditions": "Cohort 3 (60.0 mg QD), Day 14 steady state, Geo Mean"}}}
{"smiles": "COC[C@@]1(O)CC[C@@]2(C)[C@@H](CC[C@@H]3[C@@H]2CC[C@]2(C)[C@@H](C(=O)Cn4ccnc4)CC[C@@H]32)C1", "note": "[Compound 1, 3α-Hydroxy-3β-methoxymethyl-21-(1′-imidazolyl)-5α-pregnan-20-one]", "values": [{"measurement": "accumulation factor of the dosing interval (ratio of AUCDay14/AUCDay1)", "setting": "[1]; Cohort 1 (15 mg QD) and Cohort 2 (30 mg QD)", "value": "approximately 1.25"}, {"measurement": "CLss/F", "setting": "[1]; [3]", "value": 30.497, "unit": "L/h"}, {"measurement": "t1/2", "setting": "[1]; [3]", "value": 14.613, "unit": "h"}, {"measurement": "CLss/F", "setting": "[1]; [4]", "value": 31.415, "unit": "L/h"}, {"measurement": "t1/2", "setting": "[1]; [4]", "value": 14.772, "unit": "h"}, {"measurement": "AUCinf", "setting": "[1]; [5]", "value": 595.2, "unit": "ng·h/mL"}, {"measurement": "CLss/F", "setting": "[1]; [5]", "value": 30.41, "unit": "L/h"}, {"measurement": "CLss/F", "setting": "[1]; [6]", "value": 30.178, "unit": "L/h"}, {"measurement": "t1/2", "setting": "[1]; [6]", "value": 12.647, "unit": "h"}, {"measurement": "CLss/F", "setting": "[1]; [7]", "value": 30.949, "unit": "L/h"}, {"measurement": "t1/2", "setting": "[1]; [7]", "value": 12.701, "unit": "h"}, {"measurement": "CLss/F", "setting": "[1]; Cohort 2 (30.0 mg QD), Day 14 steady state, Median", "value": 30.12, "unit": "L/h"}, {"measurement": "accumulation factor of the dosing interval (ratio of AUCDay14/AUCDay1)", "setting": "[1]; Cohort 3 (60 mg QD)", "value": 0.89}, {"measurement": "CLss/F", "setting": "[1]; [8]", "value": 30.398, "unit": "L/h"}, {"measurement": "t1/2", "setting": "[1]; [8]", "value": 12.164, "unit": "h"}, {"measurement": "CLss/F", "setting": "[1]; Cohort 3 (60.0 mg QD), Day 14 steady state, Mean", "value": 32.142, "unit": "L/h"}, {"measurement": "CLss/F", "setting": "[1]; Cohort 3 (60.0 mg QD), Day 14 steady state, Median", "value": 28.45, "unit": "L/h"}, {"measurement": "AUC0-tau", "setting": "[1]; human, in vivo, 60 mg", "value": 2356.80, "unit": "ng·h/mL"}, {"measurement": "steady state clearance", "setting": "[1]; human, in vivo, 60 mg", "value": "approximately 31 L/hour"}, {"measurement": "absorption", "setting": "[1]; in vivo, po", "value": "rapid absorption"}, {"measurement": "patients meeting the HAM-D Response or Remission criterion", "setting": "[2]; 45 mg Cohort (qHS), Day 7", "value": "11 of the 13"}, {"measurement": "patients meeting the HAM-D Response or Remission criteria", "setting": "[2]; 45 mg Cohort (qHS)", "value": "8 of the 13"}, {"measurement": "patients meeting the HAM-D Response or Remission criteria", "setting": "[2]; 80 mg Cohort (qHS)", "value": "6 of the 7"}, {"measurement": "Efficacy (reduction Mean Change from Baseline in HAM-D score)", "setting": "[2]; as monotherapy (no background antidepressant) and in combination with another antidepressant", "value": "observed"}, {"measurement": "symptoms of MDD", "setting": "[2]; daily dose of 45 mg or 80 mg", "value": "reduced symptoms of moderate to severe MDD"}, {"measurement": "Efficacy (reduction Mean Change from Baseline in HAM-D score)", "setting": "[2]; patients in first course of antidepressant treatment and patients that failed previous courses", "value": "observed"}, {"measurement": "effect of Compound 1 on the efficacy of Compound 2 in treating tremor", "setting": "harmaline-induced tremor; Compound 1 3 mg/kg p.o.", "value": "does not inhibit"}, {"measurement": "effect of the addition of Compound 1 on the tremor-reducing effects of Compound 2", "setting": "harmaline-induced tremor; Compound 1 3 mg/kg p.o. (FIG. 11)", "value": "did not appear to enhance"}]}
